Data reported in article PMC6968383, “Design, synthesis, in vitro and in vivo evaluation of benzylpiperidine-linked 1,3-dimethylbenzimidazolinones as cholinesterase inhibitors against Alzheimer’s disease” (Journal of Enzyme Inhibition and Medicinal Chemistry, 2019).

Columns and labels:
[1] = molecular target: T1, AChE (EC 3.1.1.7) from electric eel (Electrophorus electricus, UniProt O42275); assay: biochemical; format: biochemical
T1 construct: purchased Sigma-Aldrich
Description: (§1) The data were expressed as IC50 values (Table 1).
(§2) The inhibitory activities of the target compounds towards AChE (from Electrophorus electricus (electric eeAChE, Sigma-Aldrich) and horse serum BChE (eqBChE, Sigma-Aldrich) or human AChE – huAChE; human BuChE – huBuChE (huAChE, huBuChE, Sigma-Aldrich) were measured by Ellman’s method. In 96-well plates, a mixture of phosphate buffer (0.1 M, pH 8.0, […]), 5,5′-dithiobis-2-nitrobenzoic acid (DTNB, 60 µL), acetylcholinestrase or butyrylcholinesterase (20 µL, 5 IU/mL) and different concentration of the compound solution (30 µL) was pre-incubated for 5 min followed by the addition of the substrate (acetylthiocholine iodide or butyrylthiocholine iodide, 20 µL). […] The measurement of each concentration for each compound was detected in triplicate. GraphPad Prism 6.0 (GraphPad Software, Inc., La Jolla, CA) was used for data processing. The inhibition curve was fitted by plotting percentage enzyme activity (100% for the reference) versus the logarithm of the concentration of tested compound. The half-maximal inhibitory concentration (IC50) values were calculated according to the inhibition curve and the data were shown in the layout of mean ± SEM by GraphPad Prism 6.0.

[2] = molecular target: T2, BChE (EC 3.1.1.8) from horse serum (Equus caballus, UniProt P81908); assay: biochemical; details: eqBChE; mean ± SEM of triplicate independent experiments; read-out: BChE IC50
T2 construct: horse serum BChE (eqBChE, Sigma-Aldrich); purchased Sigma-Aldrich; host or cells: horse serum
T2 sequence (P81908 whole entry): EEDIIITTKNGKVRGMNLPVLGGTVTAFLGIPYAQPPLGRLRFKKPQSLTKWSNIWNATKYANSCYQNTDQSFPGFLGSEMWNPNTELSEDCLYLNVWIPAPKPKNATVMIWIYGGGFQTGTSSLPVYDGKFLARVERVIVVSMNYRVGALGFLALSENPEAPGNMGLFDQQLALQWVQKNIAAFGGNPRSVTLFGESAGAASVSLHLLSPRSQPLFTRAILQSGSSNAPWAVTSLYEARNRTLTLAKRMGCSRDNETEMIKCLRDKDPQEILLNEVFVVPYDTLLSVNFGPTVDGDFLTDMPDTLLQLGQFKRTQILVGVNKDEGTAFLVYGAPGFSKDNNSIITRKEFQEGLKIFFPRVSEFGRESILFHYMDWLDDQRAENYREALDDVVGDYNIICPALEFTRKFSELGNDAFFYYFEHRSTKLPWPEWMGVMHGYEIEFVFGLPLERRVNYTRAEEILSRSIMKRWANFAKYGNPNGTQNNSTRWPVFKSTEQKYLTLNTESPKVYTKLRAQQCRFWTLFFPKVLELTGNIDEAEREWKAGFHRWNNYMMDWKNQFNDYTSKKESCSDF
Description: as §1, §2

T1 sequence (O42275 24-633): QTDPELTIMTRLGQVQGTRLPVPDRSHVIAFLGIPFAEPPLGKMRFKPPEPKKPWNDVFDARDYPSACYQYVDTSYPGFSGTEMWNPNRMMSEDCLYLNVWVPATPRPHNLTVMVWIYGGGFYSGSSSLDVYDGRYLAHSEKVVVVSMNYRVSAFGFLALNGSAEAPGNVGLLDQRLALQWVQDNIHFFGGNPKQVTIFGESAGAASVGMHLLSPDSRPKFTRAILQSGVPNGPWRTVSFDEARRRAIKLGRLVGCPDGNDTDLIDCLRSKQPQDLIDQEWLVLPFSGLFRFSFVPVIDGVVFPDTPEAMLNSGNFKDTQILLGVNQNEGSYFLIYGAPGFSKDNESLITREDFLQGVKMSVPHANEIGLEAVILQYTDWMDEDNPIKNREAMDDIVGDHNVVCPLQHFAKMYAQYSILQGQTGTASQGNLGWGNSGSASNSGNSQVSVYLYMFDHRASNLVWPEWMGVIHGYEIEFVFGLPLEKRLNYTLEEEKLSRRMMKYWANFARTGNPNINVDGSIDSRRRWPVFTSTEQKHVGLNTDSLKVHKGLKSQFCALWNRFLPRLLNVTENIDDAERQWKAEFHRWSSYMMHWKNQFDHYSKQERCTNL

In the case of Cn1c(=O)n(C)c2cc(S(=O)(=O)NCC3CCN(Cc4cccc(Br)c4)CC3)ccc21 [Compound 15j, N-((1–(3-bromobenzyl)piperidin-4-yl)methyl)-1,3-dimethyl-2-oxo-2,3-dihydro-1H-benzo[d]imidazole-5-sulphonamide], the “SI (selectivity index = AChE IC50/BChE IC50)” value ([1]; eeAChE IC50 / eqBChE IC50) is reported as 2.44, the IC50 ([1]; eeAChE, mean ± SEM of triplicate independent experiments, read-out: AChE IC50) is reported as 390 ± 150 nM and the IC50 [2] is reported as 160 ± 40 nM.
